Reference: patent US20260191968A1, “PROTAC DEGRADERS OF MLLT1 AND/OR MLLT3” (DARK BLUE THERAPEUTICS LTD, priority 2024, published 2026)

Molecular target: T1, MLLT1 (Homo sapiens, UniProt Q03111)
T1 construct: host or cells: MV4-11
T1 sequence (Q03111 1-559): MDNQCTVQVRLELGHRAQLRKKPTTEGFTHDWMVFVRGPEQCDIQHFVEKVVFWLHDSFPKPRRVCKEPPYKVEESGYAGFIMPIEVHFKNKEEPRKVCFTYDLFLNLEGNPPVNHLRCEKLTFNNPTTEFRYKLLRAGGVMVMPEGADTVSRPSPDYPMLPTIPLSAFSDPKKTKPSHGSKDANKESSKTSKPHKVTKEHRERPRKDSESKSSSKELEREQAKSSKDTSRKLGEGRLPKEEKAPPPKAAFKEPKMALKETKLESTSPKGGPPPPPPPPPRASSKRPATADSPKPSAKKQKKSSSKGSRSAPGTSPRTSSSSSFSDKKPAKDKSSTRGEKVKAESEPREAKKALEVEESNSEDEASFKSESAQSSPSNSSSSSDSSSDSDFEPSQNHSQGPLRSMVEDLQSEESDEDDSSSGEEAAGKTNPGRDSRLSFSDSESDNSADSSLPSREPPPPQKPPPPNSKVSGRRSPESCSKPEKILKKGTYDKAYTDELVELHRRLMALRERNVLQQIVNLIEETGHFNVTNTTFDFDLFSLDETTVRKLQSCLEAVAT
Assay: MLLT1 degradation assay in MV4-11 cells (JESS chemiluminescent detection), three concentrations, 24 h
Format: cell-based
Details: with respect to DMSO control
Method: MLLT1 degradation efficacy of compounds were tested in an automated chemiluminescent detection system (JESS, Cat #004-650). […] 10 mM DMSO stocks were prepared, and cells were treated with three concentrations of test compounds viz. 1000, 100 and 10 nM at a final DMSO concentration of 0.1% and incubated for 24 h at 37° C., 5% CO2. […] Post run, data were analysed using “Compass for SW” software for chemiluminescent detection. The peak area for each band was used for the calculation of MLLT1 degradation with respect to DMSO control. Data is shown as “MLLT1% degradation”.

CN1CCC[C@@H]1c1cc2cnc(NC(=O)c3cccc(OCCCCCCCC#Cc4cccc5c4C(=O)N(C4CCC(=O)NC4=O)C5=O)c3)cc2[nH]1 (stereo partly drawn) [Example 26, 3-((9-(2-(2,6-dioxopiperidin-3-yl)-1,3-dioxoisoindolin-4-yl)non-8-yn-1-yl)oxy)-N-(2-((R)-1-methylpyrrolidin-2-yl)-1H-pyrrolo[3,2-c]pyridin-6-yl)benzamide]
MLLT1% Degradation @ 0.01 μM: D (Category D: D < 25% degradation)
MLLT1% Degradation @ 0.1 μM: D (Category D: D < 25% degradation)
MLLT1% Degradation @ 1 μM: C (Category C: 25% ≤ C < 50% degradation)

CN1CCC[C@@H]1c1cc2cnc(NC(=O)CCCCCCNc3ccc4c(c3)C(=O)N(C3CCC(=O)NC3=O)C4=O)cc2[nH]1 (stereo partly drawn) [Example 27, 7-{[2-(2,6-dioxopiperidin-3-yl)-1,3-dioxoisoindol-5-yl]amino}-N-{2-[(2R)-1-methylpyrrolidin-2-yl]-1H-pyrrolo[3,2-c]pyridin-6-yl}heptanamide]
MLLT1% Degradation @ 0.01 μM: C (Category C: 25% ≤ C < 50% degradation)
MLLT1% Degradation @ 0.1 μM: C (Category C: 25% ≤ C < 50% degradation)
MLLT1% Degradation @ 1 μM: B (Category B: 50% ≤ B < 75% degradation)

CN1CCC[C@@H]1c1cc2cnc(NC(=O)CCCCCCCCNc3cccc4c3C(=O)N(C3CCC(=O)NC3=O)C4=O)cc2[nH]1 (stereo partly drawn) [Example 30, 9-{[2-(2,6-dioxopiperidin-3-yl)-1,3-dioxoisoindol-4-yl]amino}-N-{2-[(2R)-1-methylpyrrolidin-2-yl]-1H-pyrrolo[3,2-c]pyridin-6-yl}nonanamide]
MLLT1% Degradation @ 0.01 μM: C (Category C: 25% ≤ C < 50% degradation)
MLLT1% Degradation @ 0.1 μM: B (Category B: 50% ≤ B < 75% degradation)
MLLT1% Degradation @ 1 μM: A (Category A: A ≥ 75% degradation)

CN1CCC[C@@H]1c1cc2cnc(NC(=O)c3cnn(CCCC4CCN(c5cccc6c5C(=O)N(C5CCC(=O)NC5=O)C6=O)CC4)c3)cc2[nH]1 (stereo partly drawn) [Example 38, 1-(3-{1-[2-(2,6-dioxopiperidin-3-yl)-1,3-dioxoisoindol-4-yl]piperidin-4-yl}propyl)-N-{2-[(2R)-1-methylpyrrolidin-2-yl]-1H-pyrrolo[3,2-c]pyridin-6-yl}pyrazole-4-carboxamide]
MLLT1% Degradation @ 0.01 μM: D (Category D: D < 25% degradation)
MLLT1% Degradation @ 0.1 μM: D (Category D: D < 25% degradation)
MLLT1% Degradation @ 1 μM: C (Category C: 25% ≤ C < 50% degradation)

CN1CCC[C@@H]1c1cc2cnc(NC(=O)CCCC3CCCN(c4cccc5c4C(=O)N(C4CCC(=O)NC4=O)C5=O)C3)cc2[nH]1 (stereo partly drawn) [Example 44, 4-(1-(2-(2,6-dioxopiperidin-3-yl)-1,3-dioxoisoindolin-4-yl)piperidin-3-yl)-N-(2-((R)-1-methylpyrrolidin-2-yl)-1H-pyrrolo[3,2-c]pyridin-6-yl)butanamide]
MLLT1% Degradation @ 0.1 μM: C (Category C: 25% ≤ C < 50% degradation)
MLLT1% Degradation @ 1 μM: C (Category C: 25% ≤ C < 50% degradation)

CN1CCC[C@@H]1c1cc2cnc(NC(=O)c3cccc(NCC4CCN(c5cccc6c5C(=O)N(C5CCC(=O)NC5=O)C6=O)CC4)c3)cc2[nH]1 (stereo partly drawn) [Example 46, 3-(((1-(2-(2,6-dioxopiperidin-3-yl)-1,3-dioxoisoindolin-4-yl)piperidin-4-yl)methyl)amino)-N-(2-((R)-1-methylpyrrolidin-2-yl)-1H-pyrrolo[3,2-c]pyridin-6-yl)benzamide]
MLLT1% Degradation @ 0.1 μM: B (Category B: 50% ≤ B < 75% degradation)
MLLT1% Degradation @ 1 μM: B (Category B: 50% ≤ B < 75% degradation)

CN1CCC[C@@H]1c1cc2cnc(NC(=O)c3ccc(CCC#Cc4cccc5c4CN(C4CCC(=O)NC4=O)C5=O)cn3)cc2[nH]1 (stereo partly drawn) [Example 49, 5-(4-(2-(2,6-dioxopiperidin-3-yl)-1-oxoisoindolin-4-yl)but-3-yn-1-yl)-N-(2-((R)-1-methylpyrrolidin-2-yl)-1H-pyrrolo[3,2-c]pyridin-6-yl)picolinamide]
MLLT1% Degradation @ 0.01 μM: D (Category D: D < 25% degradation)
MLLT1% Degradation @ 0.1 μM: D (Category D: D < 25% degradation)
MLLT1% Degradation @ 1 μM: C (Category C: 25% ≤ C < 50% degradation)
